# Values quoted from earlier work in the CATMoS acute toxicity set (Mansouri et al. 2021).
# Values joined by “and” are separate entries in the source; they are usually repeats but may differ in a detail not shown here. Equal values may be shown once.
# Experiment: rat acute oral toxicity
# Conditions: in vivo
row,SMILES,LD50
1,CC=CC(=O)OCC,3000 mg/kg
2,Cc1ccc(OCC(=O)N[C@@H]2C(=O)N3[C@@H]2SC(C)(C)[C@@H]3C(=O)O)cc1Cl,2250 mg/kg
3,OCCCC(O)CO (stereo not drawn),7800 mg/kg
4,CCN(CC)CCOc1ccc(C2=C(c3ccccc3)Cc3cc(OC)ccc32)cc1,547 mg/kg
5,CS(=O)CC(=O)c1ccccn1 (stereo not drawn),6550 mg/kg
6,CC(Cl)CO (stereo not drawn),218 mg/kg
7,CC(O)COC(=O)CBr (stereo not drawn),664 mg/kg
8,O=CC=CC1CO1 (stereo not drawn),62 mg/kg
9,Cc1ccn(C(=O)NCCCCCCNC(=O)n2ccc(C)n2)n1,4850 mg/kg
10,O=C(O)c1cccc(O)c1O,1800 mg/kg
11,CC1=CC(=O)C(C)=C(C)C1=O,200 mg/kg
12,Cc1c2ccccc2c(C)c2c1ccc1ccccc12,327 mg/kg
13,C#CC(=O)C=CC,71 mg/kg
14,CSN(C)C(=O)Oc1cccc2c1OC(C)(C)C2,5 mg/kg
15,CC=CC(=O)O,1000 mg/kg
16,CC(OC(C)c1ccccc1)c1ccccc1 (stereo not drawn),9800 mg/kg
17,N=C1C=C(Br)C(=O)c2c(N)cc(Br)c(O)c21,2400 mg/kg
18,O=C1CC=C(O)N=N1,3900 mg/kg
19,COC(=O)c1ccccc1C(=O)c1ccc(OCCN2CCCCC2)cc1,3600 mg/kg
20,CCCCCCCCCCCCCC[N+](C)(C)Cc1ccccc1,426 mg/kg
21,Cc1[nH]c(=O)c(C#N)cc1-c1ccncc1,91 mg/kg
22,COC(=O)C1=C(C)NC(C)=C(C(=O)OCCN2CCN(C(c3ccccc3)c3ccccc3)CC2)C1c1cccc([N+](=O)[O-])c1 (stereo not drawn),156 mg/kg
23,CN(C)C(=O)C(CC[N@+]1([O-])CC[C@@](O)(c2ccc(Cl)cc2)CC1)(c1ccccc1)c1ccccc1,172 mg/kg
24,CN(c1ccc(Cl)cc1Br)c1c([N+](=O)[O-])cc([N+](=O)[O-])cc1C(F)(F)F,4.5 mg/kg
25,CC(=O)CCc1ccccc1,3200 mg/kg

row,SMILES,LD50
1,NC1CCS(=O)(=O)C1 (stereo not drawn),17900 mg/kg
2,Nc1nc2cc(Cl)c(Br)cc2o1,140 mg/kg
3,C[C@]12CCC(=O)C=C1C=C[C@@H]1[C@@H]2CC[C@@]2(C)[C@H]1CC[C@@]2(O)CCC(=O)O,650 mg/kg
4,CCN(CC)CCNC(=O)c1ccc(N)cc1,1950 mg/kg
5,CNC(=O)Oc1ccc(CC#N)cc1,511 mg/kg
6,CCC(C)c1cc([N+](=O)[O-])cc([N+](=O)[O-])c1OC(=O)OC(C)C (stereo not drawn),59 mg/kg
7,COP(=S)(OC)Oc1ccc(C#N)cc1C,500 mg/kg
8,CCOC(=O)C1=C(O)c2ccccc2S(=O)(=O)N1C,4800 mg/kg
9,CCOC(=O)CN=C=O,1130 mg/kg
10,CCC(=O)O[C@](Cc1ccccc1)(c1ccccc1)[C@H](C)CN(C)C,84 mg/kg
11,CCCCC(CC)COC(C[n+]1ccccc1)c1ccc(C2CCCCC2)cc1 (stereo not drawn),250 mg/kg
12,CN(C)[C@@H]1C(O)=C(C(N)=O)C(=O)[C@@]2(O)C(O)=C3C(=O)c4c(O)cccc4[C@@](C)(O)[C@H]3[C@H](O)[C@@H]12,4800 mg/kg
13,CCCCCl,2670 mg/kg
14,CCCCC(CC)COCC1CO1 (stereo not drawn),7800 mg/kg
15,O=C(Cc1ccccc1)NNCc1ccccc1,2500 mg/kg
16,CCOC(C1=NCC(C)(C)N1)c1ccc(Cl)c(Cl)c1 (stereo not drawn),110 mg/kg
17,CCCCOC(C)OCCCC,8790 mg/kg
18,N#CN=c1ccccn1Cc1ccccc1Cl,500 mg/kg
19,FC1(F)C(Cl)=C(Cl)C(F)(F)C1(F)F,280 mg/kg
20,O=C(O)[C@H](O)[C@@H](O)[C@H](O)[C@H](O)CO,10400 mg/kg
21,C=CC(CCC(=O)O)OC(C)=O (stereo not drawn),543 mg/kg
22,OP(OCCCl)OCCCl,260 mg/kg
23,Cc1cccc(C)c1NC(=O)CC12CCCN1CCC2,255 mg/kg
24,O=Cc1cccc2ccccc12,667 mg/kg
25,COc1cc(N)ccc1N,60 mg/kg and 70 mg/kg

row,SMILES,LD50
1,CN(C)c1ccc(N)cc1,48 mg/kg
2,O=C(CN1CCOCC1)N/N=C/c1ccc([N+](=O)[O-])o1,420 mg/kg
3,COP(=S)(N=C1SCCS1)OC,10 mg/kg
4,CCCCCCCCCCCCCCCCCCOC(=O)Cc1ccc(N(CCCl)CCCl)cc1,200 mg/kg
5,COc1cc(C[C@H]2c3cc(OC)c(OC)cc3CCN2C)c(Oc2cc3c(cc2OC)-c2c(OC)c(OC)cc4c2[C@H](C3)N(C)CC4)cc1OC,1500 mg/kg
6,Oc1ccc(C(O)CCNCCCSc2ccccc2)cc1 (stereo not drawn),650 mg/kg
7,c1cc(N(CC2CO2)CC2CO2)ccc1OCC1CO1 (stereo not drawn),1040 mg/kg
8,CC(C)(C)OC(=O)N1CC(=O)C1,2500 mg/kg
9,Cc1cccc(C)c1N(C(=O)CCl)C1CCOC1=O (stereo not drawn),2600 mg/kg
10,O=C(O)[C@@H]1CS[C@H](c2ccccc2O)N1C(=O)CCS,8290 mg/kg
11,NC(=O)N1CCC(c2ccccc2)CC1,790 mg/kg
12,C=CC(=O)OCCCCOC(=O)C=C,587 mg/kg
13,O=C(Nc1ccc(Br)cc1)c1cc(Br)ccc1O,410 mg/kg
14,CCCC(=O)Nc1c(I)cc(I)c(CC(CC)C(=O)O)c1I (stereo not drawn),6500 mg/kg
15,CC(N)C1(C)CCCO1 (stereo not drawn),130 mg/kg
16,CCOC(=O)c1c[nH]c2cc(OCC3CC3)c(OCC3CC3)cc2c1=O,3000 mg/kg
17,COC(OC)c1ccccc1[N+](=O)[O-],3420 mg/kg
18,CCCCCCCCOS(=O)(=O)O,3200 mg/kg
19,CCOC(=O)Cc1[nH]nc2ccc(Cl)cc12,4800 mg/kg
20,CC(N)C1CCC(c2ccccc2)CC1 (stereo not drawn),690 mg/kg
21,CCCCCCCCCCCCOC(C[n+]1ccccc1)c1ccc(C(C)C)cc1 (stereo not drawn),250 mg/kg
22,CS(=O)(=O)OCCCN(CCCOS(C)(=O)=O)c1ccccc1,38 mg/kg
23,N#CCN(CC#N)N=O,163 mg/kg
